Results reported in ChEMBL document CHEMBL1201862, “PubChem BioAssay data set” (2004).
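1) Cells in 96-well plates. 2) Compound, 48 h, 5 concentrations. 3) Linear interpolation between surrounding doses. 4) Unreached endpoint = highest concentration. Here, GI50 denotes the concentration required for 50% inhibition of growth.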 Activity calls are given as the source filed them. Rule as the data show it: active = GI50 up to about 1.1 µM and inactive = higher.

Legend:
Test in all cases: NCI tumour cell line growth inhibition, 48 h
[1] = test system: Malme-3M
[2] = test system: SK-MEL-28
[3] = test system: SK-MEL-2
[4] = test system: NCI-H460
[5] = test system: NCI/ADR-RES
[6] = test system: RXF 393
[7] = test system: T47D
[8] = test system: SF-295
[9] = test system: SNB-75
[10] = test system: NCI-H522
[11] = test system: HCT-15
[12] = test system: HCT-116
[13] = test system: DU-145
[14] = test system: Hs-578T
[15] = test system: EKVX
[16] = test system: MDA-N
[17] = test system: SF-539
[18] = test system: 786-0
[19] = test system: CCRF-CEM

| SMILES | GI50 [1] | GI50 [2] | GI50 [3] | GI50 [4] | GI50 [5] | GI50 [6] | GI50 [7] | GI50 [8] | GI50 [9] | GI50 [10] | GI50 [11] [µM] | GI50 [12] | GI50 [13] | GI50 [14] | GI50 [15] | GI50 [16] | GI50 [17] | GI50 [18] | GI50 [19] |
| --- | --- | --- | --- | --- | --- | --- | --- | --- | --- | --- | --- | --- | --- | --- | --- | --- | --- | --- | --- |
| COc1ccc(/C=C/C(=O)CC(=O)/C=C/c2ccc(OC)cc2)cc1 | 34.5 µM (inactive) | 36.4 µM (inactive) | > 100 µM (inactive) | 33 µM (inactive) | 36.1 µM (inactive) | 23.8 µM (inactive) | > 100 µM (inactive) | 27.9 µM (inactive) | > 100 µM (inactive) | 7.94 µM (inactive) | 42.9 | 15.3 µM (inactive) | 74.5 µM (inactive) | 36.4 µM (inactive) | 54.7 µM (inactive) | 20.7 µM (inactive) | 30.3 µM (inactive) | 30.8 µM (inactive) | 20.9 µM (inactive) |
| CCCCCC(O)C(O)CCC[C@H](O)[C@H]1CC[C@H]([C@H]2CC[C@H]([C@H](O)CCCCCCCCCCCCC3=C[C@H](C)OC3=O)O2)O1 (some centres undefined) | 11.9 µM (inactive) | 2.56 µM (inactive) | 1.76 µM (inactive) | 2.43 µM (inactive) | 0.853 µM (active) | 7.33 µM (inactive) | 7.19 µM (inactive) | 1.97 µM (inactive) | 5.43 µM (inactive) | 4.88 µM (inactive) | 3.81 | 1.36 µM (inactive) | 9.18 µM (inactive) | 2.91 µM (inactive) | 2.62 µM (inactive) | 2.83 µM (inactive) | 5.7 µM (inactive) | 3.84 µM (inactive) | 1.09 µM (active) |
| CCC(C)NC(=S)N/N=C(\C)c1nc2cccnc2[nH]1 (centres undefined) | 6.73 µM (inactive) | 33.9 µM (inactive) | 5.92 µM (inactive) | 10 µM (inactive) | 16.7 µM (inactive) | 15.6 µM (inactive) | 2.1 µM (inactive) | 5.53 µM (inactive) | 48.5 µM (inactive) | 7.87 µM (inactive) | 5.64 | 6.05 µM (inactive) | 16.9 µM (inactive) | 19.3 µM (inactive) | 6.73 µM (inactive) | 47.4 µM (inactive) | 21.7 µM (inactive) | 13.6 µM (inactive) | 3.09 µM (inactive) |
| CN(C)Cc1cc(/N=N/c2ccccc2Cl)ccc1O | 12.6 µM (inactive) | 16.9 µM (inactive) | – | 5.98 µM (inactive) | 25.4 µM (inactive) | 20.3 µM (inactive) | 17.7 µM (inactive) | 16.6 µM (inactive) | 18.7 µM (inactive) | 10.6 µM (inactive) | 20.1 | 28.1 µM (inactive) | 23.5 µM (inactive) | 16.7 µM (inactive) | 49.3 µM (inactive) | 17.5 µM (inactive) | 24.3 µM (inactive) | 15.5 µM (inactive) | 17.4 µM (inactive) |
| O=C(Cc1nc2ccccc2[nH]c1=O)c1c[nH]c2ccccc12 | 32.9 µM (inactive) | – | 10.1 µM (inactive) | 6.58 µM (inactive) | 8.65 µM (inactive) | 17.5 µM (inactive) | 12.2 µM (inactive) | 9.04 µM (inactive) | 25.1 µM (inactive) | 14.8 µM (inactive) | 8.18 | 13.8 µM (inactive) | 15.2 µM (inactive) | 49 µM (inactive) | 29.6 µM (inactive) | 12.1 µM (inactive) | 19.2 µM (inactive) | 13.9 µM (inactive) | 4.3 µM (inactive) |
| COc1ccc(C(=O)c2ccc(-n3cc(/C=C/[N+](=O)[O-])c4ccccc43)cc2)cc1 | 20.2 µM (inactive) | 28.1 µM (inactive) | 23.1 µM (inactive) | 35.9 µM (inactive) | 24.3 µM (inactive) | 5.45 µM (inactive) | 2.07 µM (inactive) | 47.9 µM (inactive) | 91 µM (inactive) | 15.4 µM (inactive) | 7 | 10.6 µM (inactive) | 21.5 µM (inactive) | 7.57 µM (inactive) | 23.6 µM (inactive) | 22.8 µM (inactive) | 14.7 µM (inactive) | 3.52 µM (inactive) | 2.58 µM (inactive) |
| CC(C)[C@H](NC(=O)OCc1ccccc1)C(=O)N[C@H](/C=C/C(=O)OC(C)(C)C)CO | > 100 µM (inactive) | > 100 µM (inactive) | > 100 µM (inactive) | > 100 µM (inactive) | > 100 µM (inactive) | > 100 µM (inactive) | 36.7 µM (inactive) | > 100 µM (inactive) | 0.12 µM (active) | > 100 µM (inactive) | > 100 | 71.9 µM (inactive) | > 100 µM (inactive) | > 100 µM (inactive) | > 100 µM (inactive) | > 100 µM (inactive) | > 100 µM (inactive) | 65.6 µM (inactive) | 28.1 µM (inactive) |
| O=C(Nc1nc2ncn(CCOC(=O)c3ccccc3)c2c(=O)[nH]1)c1ccccc1 | 42.3 µM (inactive) | 50.7 µM (inactive) | 35.2 µM (inactive) | 8.43 µM (inactive) | 66.2 µM (inactive) | 42.4 µM (inactive) | 28.9 µM (inactive) | 12.9 µM (inactive) | 18.9 µM (inactive) | 2.75 µM (inactive) | 4.7 | 4.43 µM (inactive) | 31.8 µM (inactive) | 13.1 µM (inactive) | > 84.3 µM (inactive) | 2.54 µM (inactive) | 10.8 µM (inactive) | 15.8 µM (inactive) | 9.71 µM (inactive) |
| CSc1c(C#N)c(O)nc(N)c1C(=O)Nc1ccc(C)cc1 | > 100 µM (inactive) | > 100 µM (inactive) | > 100 µM (inactive) | > 100 µM (inactive) | > 100 µM (inactive) | > 100 µM (inactive) | > 100 µM (inactive) | – | > 100 µM (inactive) | 71.9 µM (inactive) | > 100 | > 100 µM (inactive) | > 100 µM (inactive) | > 100 µM (inactive) | > 100 µM (inactive) | > 100 µM (inactive) | > 100 µM (inactive) | > 100 µM (inactive) | 97.5 µM (inactive) |
| COc1cc(C(=O)/C=C/c2ccc(OCCSCCCCCCCCCCSCCOc3ccc(/C=C/C(=O)c4cc(OC)c(OC)c(OC)c4)cc3)cc2)cc(OC)c1OC | > 100 µM (inactive) | > 100 µM (inactive) | > 100 µM (inactive) | – | > 100 µM (inactive) | > 100 µM (inactive) | > 100 µM (inactive) | > 100 µM (inactive) | > 100 µM (inactive) | > 100 µM (inactive) | > 100 | > 100 µM (inactive) | > 100 µM (inactive) | > 100 µM (inactive) | > 100 µM (inactive) | > 100 µM (inactive) | > 100 µM (inactive) | > 100 µM (inactive) | > 100 µM (inactive) |
| CC(=O)OC12CC(C)C3(O)C4C=C(C)C(=O)[C@@]4(O)CC(CO)=C[C@H]3C1C2(C)C (some centres undefined) | > 10 µM (inactive) | > 10 µM (inactive) | > 10 µM (inactive) | > 100 µM (inactive) | > 10 µM (inactive) | > 100 µM (inactive) | > 100 µM (inactive) | – | > 10 µM (inactive) | > 10 µM (inactive) | > 10 | > 10 µM (inactive) | > 10 µM (inactive) | 0.82 µM (active) | > 10 µM (inactive) | 2.69 µM (inactive) | > 10 µM (inactive) | > 10 µM (inactive) | > 1000 µM (inactive) |
